Assay results from patent US7566731B2, “Hetaryl substituted homotetramic and homotetronic acids and their use thereof as pesticides” (Bayer CropScience AG, priority 2001, dated 2009).

Assays:
Type in all cases: in vivo
[1] = tested on: two-spotted spider mite (Tetranychus urticae); experiment: Tetranychus test (OP resistant/immersion treatment); settings: 100 ppm; bean plants immersed
Protocol: To prepare a suitable active compound preparation, 1 part by weight of active compound is mixed with the stated amounts of solvent and emulsifier and the concentrate is diluted to the desired concentration with emulsifier-containing water. Bean plants (Phaseolus vulgaris) which are severely infested by all stages of the two-spotted spider mite (Tetranychus urticae) are immersed into an active compound preparation of the desired concentration. After the desired time, the efficacy is determined in %. 100% means that all of the spider mites have been destroyed; 0% means that none of the spider mites have been destroyed.

[2] = tested on: larvae of the mustard beetle (Phaedon cochleariae); experiment: Phaedon larvae test; settings: after 7 days, cabbage leaves immersed
Protocol: (§1) To prepare a suitable active compound preparation, 1 part by weight of active compound is mixed with the stated amounts of solvent and emulsifier and the concentrate is diluted to the desired concentration with emulsifier-containing water. Cabbage leaves (Brassica oleracea) are treated by immersing in the active compound preparation of the desired concentration and populated with larvae of the mustard beetle (Phaedon cochleariae) while the leaves are still moist. After the desired time, the destruction rate is determined in %. 100% means that all the beetle larvae have been destroyed; 0% means that none of the beetle larvae have been destroyed.

[3] = tested on: Meloidogyne incognita; experiment: Meloidogyne test; settings: active compound concentration 20 ppm; lettuce in sand
Protocol: To prepare a suitable active compound preparation, 1 part by weight of active compound is mixed with the stated amounts of solvent and emulsifier and the concentrate is diluted to the desired concentration with water. Containers are filled with sand, active compound solution, Meloidogyne incognita egg/larval suspension and lettuce seeds. The lettuce seeds germinate and the plantlets develop. The galls develop on the roots. After the desired time, the nematicidal efficacy is determined in % with reference to gall formation. 100% means that no galls were found; 0% means that the number of galls on the treated plants corresponds to that of the untreated control.

[4] = tested on: Wheat; experiment: Post-emergence test, Wheat; settings: 125 g ai/ha, after three weeks
Protocol: (§2) To prepare a suitable active compound preparation, 1 part by weight of active compound is mixed with the stated amount of solvent, the stated amount of emulsifier is added, and the concentrate is diluted with water to the desired concentration. Test plants which have a height of 5 to 15 cm are sprayed with the active compound preparation in such a way that the active compound quantities desired in each case are applied per unit area. The concentration of the spray mixture is chosen such that the active compound quantities desired in each case are applied in 1000 l of water/ha. After three weeks, the degree of damage to the plants is scored in % damage in comparison with the development of the untreated control. The figures denote: • 0%=no effect (like untreated control) • 100%=total destruction

[5] = tested on: green peach aphid (Myzus persicae); experiment: Myzus test; settings: 500 ppm; after 6 days; cabbage leaves immersed
Protocol: To prepare a suitable active compound preparation, 1 part by weight of active compound is mixed with the stated amounts of solvent and emulsifier and the concentrate is diluted to the desired concentration with emulsifier-containing water. Cabbage leaves (Brassica oleracea) which are severely infested by the green peach aphid (Myzus persicae) are treated by immersing into the active compound preparation of the desired concentration. After the desired time, the destruction rate is determined in %. 100% means that all of the aphids have been destroyed; 0% means that none of the aphids have been destroyed.

[6] = tested on: Alopecurus; experiment: Post-emergence test, Alopecurus; settings: 125 g ai/ha, after three weeks
Protocol: as §2

[7] = tested on: fall armyworm caterpillars (Spodoptera frugiperda); experiment: Spodoptera frugiperda test; settings: 500 ppm; after 7 days; cabbage leaves immersed
Protocol: as §1, with “fall armyworm caterpillars (Spodoptera frugiperda)” for “mustard beetle (Phaedon cochleariae)”, “caterpillars” for “beetle larvae”

[8] = tested on: Matricaria; experiment: Pre-emergence test, Matricaria; settings: 125 g ai/ha, after three weeks
Protocol: (§3) To prepare a suitable active compound preparation, 1 part by weight of active compound is mixed with the stated amount of solvent, the stated amount of emulsifier is added, and the concentrate is diluted with water to the desired concentration. Seeds of the test plants are sown in normal soil. After approximately 24 hours, the soil is sprayed with the active compound preparation in such a way that the active compound quantities desired in each case are applied per unit area. The concentration of the spray mixture is chosen such that the active compound quantities desired in each case are applied in 1000 l of water/ha. After three weeks, the degree of damage to the plants is scored in % damage in comparison with the development of the untreated control. The figures denote: • 0%=no effect (like untreated control) • 100%=total destruction

[9] = tested on: Digitaria; experiment: Post-emergence test, Digitaria; settings: 125 g ai/ha, after three weeks
Protocol: as §2

[10] = tested on: Lolium; experiment: Pre-emergence test, Lolium; settings: 125 g ai/ha, after three weeks
Protocol: as §3

[11] = tested on: Setaria; experiment: Post-emergence test, Setaria; settings: 125 g ai/ha, after three weeks
Protocol: as §2

[12] = tested on: Sugar beet; experiment: Pre-emergence test, Sugar beet; settings: 125 g ai/ha, after three weeks
Protocol: as §3

[13] = tested on: Setaria; experiment: Pre-emergence test, Setaria; settings: 125 g ai/ha, after three weeks
Protocol: as §3

[14] = tested on: Digitaria; experiment: Pre-emergence test, Digitaria; settings: 125 g ai/ha, after three weeks
Protocol: as §3

[15] = tested on: Sugar beet; experiment: Post-emergence test, Sugar beet; settings: 125 g ai/ha, after three weeks
Protocol: as §2

[16] = tested on: Avena fatua; experiment: Post-emergence test, Avena fatua; settings: 125 g ai/ha, after three weeks
Protocol: as §2

SMILES	destruction rate (efficacy) [1] [%]	destruction rate ([2]; 1000 ppm) [%]	destruction rate (nematicidal efficacy with reference to gall formation) [3] [%]	degree of damage to the plants (% damage), Wheat [4] [%]	destruction rate [5] [%]	degree of damage to the plants (% damage), Alopecurus [6] [%]	destruction rate [7] [%]	degree of damage to the plants (% damage), Matricaria [8] [%]	degree of damage to the plants (% damage), Digitaria [9] [%]	degree of damage to the plants (% damage), Lolium [10] [%]	degree of damage to the plants (% damage), Setaria [11] [%]	degree of damage to the plants (% damage), Sugar beet [12] [%]	degree of damage to the plants (% damage), Setaria [13] [%]	degree of damage to the plants (% damage), Digitaria [14] [%]	degree of damage to the plants (% damage), Sugar beet [15] [%]	degree of damage to the plants (% damage), Avena fatua [16] [%]	destruction rate ([2]; 500 ppm) [%]
Cc1sc(-c2ccc(Cl)cc2)nc1C1=C(O)CC(C)(C)NC1=O [Example I-1-a-1]	98	100	–	–	–	–	–	–	–	–	–	–	–	–	–	–	–
CCOC(=O)OC1=C(c2nc(-c3ccc(Cl)cc3)sc2C)C(=O)NC(C)(C)C1 [Example I-1-c-1]	–	–	100	–	–	–	–	–	–	–	–	–	–	–	–	–	–
Cc1sc(-c2ccc(Cl)cc2)nc1C1=C(O)C(C)(C)C(C)(C)OC1=O [Example I-2-a-1]	100	–	100	10	90	90	100	95	95	100	100	0	100	100	0	90	100
